From patent US4401604A, “Process for preparing thiosulfenamide derivatives of N-phosphonomethylglycine triesters” (Monsanto Company, priority 1981, dated 1983)

Assays:
Assay in all cases: Post-emergence herbicidal activity, greenhouse
Type in all cases: in vivo
Details in all cases: Table I, 4 WAT
Quackgrass = system: Quackgrass
Excerpt: (§1) A good grade of top soil is placed in aluminum pans having holes in the bottom and compacted to a depth of 0.95 to 1.27 cm. from the top of the pan. A predetermined number of seeds of each of several dicotyledonous and monocotyledonous annual plant species and/or vegetative propagules for the perennial plant species are placed on the soil and pressed into the soil surface. The seeds and/or vegetative propagules are covered with soil and leveled. The pans are then placed on a sand bench in the greenhouse and watered from below as needed. After the plants reach the desired age (two to three weeks), each pan except for the control pans is removed individually to a spraying chamber and sprayed by means of an atomizer operating at a positive air pressure of approximately 1.46 kg/cm^2 absolute. The atomizer contains 6 ml. of a solution or suspension of the chemical. In that 6 ml., is an amount of a cyclohexanone emulsifying agent mixture to give a spray solution or suspension which contains about 0.4% by weight of the emulsifier. The spray solution or suspension contains a sufficient amount of the candidate chemical in order to give application rates corresponding to those set forth in the tables. The spray solution is prepared by taking an aliquot of a 1.0% by weight stock solution or suspension of the candidate chemical in an organic solvent such as acetone or tetrahydrofuran or in water. The emulsifying agent employed is a mixture comprising 35 weight percent butylamine dodecylbenzene sulfonate and 65 weight percent of a tall oil ethylene oxide condensate having about 11 moles of ethylene oxide per mole of tall oil. The pans are returned to the greenhouse and watered as before and the injury to the plants as compared to the control is observed at approximately two and four weeks as indicated in the tables under WAT and the results recorded. In some instances, the two-week observations are omitted.
(§2) The post-emergence herbicidal activity index used in Table I is as follows:
(§3) The plant species utilized in these tests are identified by letter in accordance with the following legend: […]

Downy Brome = system: Downy Brome
Excerpt: as §1, §2, §3

Johnsongrass = system: Johnsongrass
Excerpt: as §1, §2, §3

Cocklebur = system: Cocklebur
Excerpt: as §1, §2, §3

Barnyardgrass = system: Barnyardgrass
Excerpt: as §1, §2, §3

Velvetleaf = system: Velvetleaf
Excerpt: as §1, §2, §3

Yellow Nutsedge = system: Yellow Nutsedge
Excerpt: as §1, §2, §3

Lambsquarters = system: Lambsquarters
Excerpt: as §1, §2, §3

Morningglory = system: Morningglory
Excerpt: as §1, §2, §3

## CCOC(=O)CN(CP(=O)(Oc1ccc(Cl)c(C)c1)Oc1ccc(Cl)c(C)c1)SSc1ccc(OC)cc1 [VII]
Quackgrass; 5.6 kg/h
  post-emergence herbicidal activity index: 1 (25-49% control)
Quackgrass; 11.2 kg/h
  post-emergence herbicidal activity index: 1 (25-49% control)
Downy Brome; 5.6 kg/h
  post-emergence herbicidal activity index: 2 (50-74% control)
Downy Brome; 11.2 kg/h
  post-emergence herbicidal activity index: 2 (50-74% control)
Johnsongrass; 5.6 kg/h
  post-emergence herbicidal activity index: 3 (75-99% control)
Johnsongrass; 11.2 kg/h
  post-emergence herbicidal activity index: 2 (50-74% control)
Cocklebur; 5.6 kg/h
  post-emergence herbicidal activity index: 1 (25-49% control)
Cocklebur; 11.2 kg/h
  post-emergence herbicidal activity index: 2 (50-74% control)
Barnyardgrass; 5.6 kg/h
  post-emergence herbicidal activity index: 3 (75-99% control)
Barnyardgrass; 11.2 kg/h
  post-emergence herbicidal activity index: 3 (75-99% control)
Velvetleaf; 5.6 kg/h
  post-emergence herbicidal activity index: 1 (25-49% control)
Velvetleaf; 11.2 kg/h
  post-emergence herbicidal activity index: 1 (25-49% control)
Yellow Nutsedge; 5.6 kg/h
  post-emergence herbicidal activity index: 2 (50-74% control)
Yellow Nutsedge; 11.2 kg/h
  post-emergence herbicidal activity index: 1 (25-49% control)
Lambsquarters; 5.6 kg/h
  post-emergence herbicidal activity index: 2 (50-74% control)
Lambsquarters; 11.2 kg/h
  post-emergence herbicidal activity index: 2 (50-74% control)
Morningglory; 5.6 kg/h
  post-emergence herbicidal activity index: 1 (25-49% control)
Morningglory; 11.2 kg/h
  post-emergence herbicidal activity index: 1 (25-49% control)
